Laboratory results from the supplement of paper PMC10331698.
± gives the standard deviation of the averaged measurements.

Key:
Experiment in all cases: level (log10 ratio to DMSO vehicle control); higher = higher biomarker level / cell amount than vehicle control
Conditions in all cases: in DMSO
[1] = compound: CC(C)(C)C(=O)CC(=O)C(F)(F)C(F)(F)C(F)(F)F [(Heptafluorobutanoyl)pivaloylmethane]
Description: (§1)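 BioMAP Diversity Plus panel of 12 human primary cell co-culture systems (3C, 4H, LPS, SAg, BT, BF4T, BE3C, CASM3C, HDF3CGF, KF3CT, MyoF, Mphg). Compounds were added 1 h before stimulation and left for 24 h (MyoF 48 h; BT 72 h for soluble read-outs or 6 d for IgG). Biomarkers were read by ELISA, cytotoxicity by SRB, PBMC viability and proliferation by Alamar Blue. Each well value was divided by the mean of 8 DMSO control wells on the same plate and log10 transformed; duplicate blinded samples were tested at 4 concentrations.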

[2] = compound: FC(F)(F)C(F)(F)C(F)(F)C(F)(F)C(F)(F)C(F)(F)C(F)(F)CCI [1-Iodo-1H,1H,2H,2H-perfluorononane]
Description: as §1

[3] = compound: NC(=O)C(F)(F)C(F)(F)C(F)(F)C(F)(F)C(F)(F)C(F)(F)C(F)(F)F [Perfluorooctanamide]
Description: as §1

[4] = compound: O=C(O)C(F)(F)C(F)(F)C(F)(F)C(F)(F)C(F)(F)C(F)(F)C(F)(F)C(F)(F)C(F)(F)C(F)(F)C(F)(F)C(F)(F)C(F)(F)F [Perfluorotetradecanoic acid]
Description: as §1

[5] = compound: O=C(O)CCC(F)(F)C(F)(F)C(F)(F)C(F)(F)C(F)(F)F [2H,2H,3H,3H-Perfluorooctanoic acid]
Description: as §1

[6] = compound: O=S(=O)(O)C(F)(F)C(F)(F)C(F)(F)C(F)(F)F [Perfluorobutanesulfonic acid]
Description: as §1

[7] = compound: OCC(F)(F)C(F)(F)C(F)(F)F [1H,1H-Heptafluorobutanol]
Description: as §1

Test System	level (log10) ([1]; 6700 nM)	level (log10) ([1]; 20000 nM)	level (log10) ([1]; 60000 nM)	level (log10) ([2]; 6700 nM)	level (log10) ([2]; 20000 nM)	level (log10) ([3]; 6700 nM)	level (log10) ([3]; 20000 nM)	level (log10) ([3]; 60000 nM)	level (log10) ([4]; 6700 nM)	level (log10) ([4]; 20000 nM)	level (log10) ([5]; 6700 nM)	level (log10) ([5]; 20000 nM)	level (log10) ([5]; 60000 nM)	level (log10) ([6]; 6700 nM)	level (log10) ([6]; 20000 nM)	level (log10) ([6]; 60000 nM)	level (log10) ([7]; 6700 nM)	level (log10) ([7]; 20000 nM)	level (log10) ([7]; 60000 nM)
lMphg:CD40	-0.0075 ± 0.0021	0.004 ± 0.034	-0.017 ± 0.0014	-0.0065 ± 0.00071	-0.0225 ± 0.028	-0.0285 ± 0.018	-0.007 ± 0.014	0.045 ± 0.0085	-0.0405 ± 0.036	-0.031 ± 0.014	-0.0205 ± 0.039	-0.0235 ± 0.04	-0.05 ± 0.041	-0.0015 ± 0.0064	-0.0065 ± 0.0021	0.009 ± 0.0014	0.0045 ± 0.025	-0.0125 ± 0.059	-0.0105 ± 0.029
lMphg:CD62E/E-Selectin	-0.017	-0.0085 ± 0.012	-0.0525 ± 0.011	0.016 ± 0.02	0.001 ± 0.0099	0.022 ± 0.048	0.0285 ± 0.043	-0.0165 ± 0.07	0.0125 ± 0.03	-0.006 ± 0.044	0.0015 ± 0.035	0.0165 ± 0.0064	0.0415 ± 0.00071	0.0405 ± 0.0035	0.041 ± 0.044	0.0215 ± 0.046	-0.0085 ± 0.021	0.001 ± 0.017	0 ± 0.045
lMphg:CD69	-0.0145 ± 0.0021	-0.0025 ± 0.0078	0.051 ± 0.011	-0.0025 ± 0.023	-0.053 ± 0.076	0.0175 ± 0.018	-0.005 ± 0.025	-0.0825 ± 0.074	-0.02 ± 0.038	-0.007 ± 0.089	-0.032 ± 0.05	-0.0325 ± 0.063	-0.016 ± 0.031	0.0035 ± 0.005	-0.0195 ± 0.005	-0.0525 ± 0.043	-0.0555 ± 0.066	-0.052 ± 0.098	-0.0465 ± 0.066
lMphg:CD106/VCAM-1	0.0115 ± 0.037	0.001 ± 0.014	-0.009 ± 0.0057	-0.009 ± 0.04	-0.039 ± 0.075	-0.021 ± 0.0071	0.006 ± 0.0071	0.0435 ± 0.012	-0.0325 ± 0.028	-0.017 ± 0.0014	-0.0135 ± 0.0092	-0.022 ± 0.023	-0.011 ± 0.021	-0.004 ± 0.025	-0.013 ± 0.018	-0.0195 ± 0.0078	-0.001	0.008 ± 0.0028	0.01 ± 0.0085
lMphg:CXCL8/IL-8	0.002 ± 0.02	0.006 ± 0.034	0.014 ± 0.064	0.007 ± 0.013	0.0695 ± 0.0078	0.013 ± 0.028	0.0285 ± 0.012	0.031 ± 0.042	0.0035 ± 0.032	0.0215 ± 0.049	-0.017 ± 0.023	0.066 ± 0.04	0.115 ± 0.018	0.022 ± 0.0028	0.06 ± 0.0085	0.183 ± 0.0099	0.003 ± 0.055	0.0295 ± 0.036	0.0415 ± 0.021
lMphg:IL-1alpha	0.0265 ± 0.042	0.0005 ± 0.0021	0.0175 ± 0.013	-0.012 ± 0.014	0.055 ± 0.045	0.01 ± 0.034	0.0265 ± 0.054	0.04 ± 0.058	0.021 ± 0.068	0.004 ± 0.05	0.03 ± 0.028	0.0675 ± 0.071	0.129 ± 0.067	0.0315 ± 0.016	-0.0055 ± 0.056	0.034 ± 0.031	0.0275 ± 0.04	0.008 ± 0.018	0.015 ± 0.0014
lMphg:M-CSF	-0.0265 ± 0.039	-0.027 ± 0.051	-0.0315 ± 0.032	-0.023 ± 0.037	-0.015 ± 0.0014	0.0175 ± 0.011	-0.0055 ± 0.042	0.0085 ± 0.059	-0.0065 ± 0.03	-0.0175 ± 0.015	-0.0155 ± 0.0021	0.0035 ± 0.0064	-0.046 ± 0.014	0.021 ± 0.028	-0.0045 ± 0.074	-0.0045 ± 0.07	-0.005 ± 0.017	0.0045 ± 0.016	0.0125 ± 0.019
lMphg:SRB	-0.001 ± 0.0057	-0.006 ± 0.0028	0.008 ± 0.016	-0.002 ± 0.0071	0.0065 ± 0.005	-0.0015 ± 0.016	-0.0145 ± 0.0021	-0.0075 ± 0.011	-0.0035 ± 0.0035	-0.0105 ± 0.0078	-0.0025 ± 0.0035	0.001 ± 0.0014	0.007 ± 0.0085	0.002 ± 0.013	-0.0155 ± 0.011	-0.0155 ± 0.0064	-0.0045 ± 0.0064	-0.002 ± 0.018	-0.005 ± 0.0014
lMphg:SRB-Mphg	-0.0025 ± 0.0078	-0.0125 ± 0.012	0.0035 ± 0.019	0.001 ± 0.03	0.001 ± 0.011	-0.0145 ± 0.021	-0.01 ± 0.0071	-0.016 ± 0.0057	0.0035 ± 0.011	0.006 ± 0.031	0.0115 ± 0.0035	0.0065 ± 0.015	0.007 ± 0.017	0.01 ± 0.018	0.0045 ± 0.015	-0.0005 ± 0.012	0.005 ± 0.0028	-0.009 ± 0.0042	0.006 ± 0.0099
lMphg:sIL-10	0.024 ± 0.0099	-0.0365 ± 0.061	0.0125 ± 0.032	-0.0685 ± 0.00071	-0.072 ± 0.021	-0.029 ± 0.0028	0.013 ± 0.042	0.008 ± 0.058	-0.032 ± 0.0014	-0.0315 ± 0.033	-0.073 ± 0.0085	-0.043	-0.216 ± 0.011	0.043 ± 0.099	-0.0475 ± 0.032	0.0065 ± 0.049	-0.165 ± 0.033	0.032 ± 0.014	-0.0565 ± 0.097
